According to ChEMBL document CHEMBL6087476, “Positive Charge-Concentrated Dimeric Lipopeptides with Enhanced Protease Resistance: A Potential Solution for Systemic Bacterial Infections” (J Med Chem, 2025):
Converted amounts (≈) assume the structure as drawn.

How the values were obtained:
Escherichia coli [1] = assay: Antimicrobial activity against Escherichia coli K88 assessed as increase in absorbance incubated for 20 to 22 hrs; format: functional; conditions: time 20-22 hrs
Pseudomonas aeruginosa [2] = assay: Antimicrobial activity against Pseudomonas aeruginosa 27853 assessed as increase in absorbance incubated for 20 to 22 hrs; format: functional; conditions: time 20-22 hrs
Salmonella typhimurium [3] = assay: Antimicrobial activity against Salmonella typhimurium 7731 assessed as increase in absorbance incubated for 20 to 22 hrs; format: functional, Salmonella enterica subsp. enterica serovar Typhimurium; conditions: Salmonella enterica, time 20-22 hrs
Enterococcus faecalis = assay: Antimicrobial activity against Enterococcus faecalis 29212 assessed as increase in absorbance incubated for 20 to 22 hrs; format: functional; conditions: time 20-22 hrs
Escherichia coli [4] = assay: Antimicrobial activity against Escherichia coli ATCC 25922 assessed as increase in absorbance incubated for 20 to 22 hrs; format: functional; conditions: time 20-22 hrs
[5] = Hemolytic activity in healthy human RBC assessed as hemolysis incubated for 1 hr by microplate reader; format: toxicity, cell-based; conditions: erythrocyte
RAW264.7 = assay: Cytotoxicity against mouse RAW264.7 cells assessed as cell death measured after 18 to 24 hrs by MTT assay; format: functional; conditions: time 18-24 hrs
Staphylococcus aureus [6] = assay: Antimicrobial activity against Staphylococcus aureus 29213 assessed as increase in absorbance incubated for 20 to 22 hrs; format: functional; conditions: time 20-22 hrs
Staphylococcus aureus [7] = assay: Antimicrobial activity against methicillin-resistant Staphylococcus aureus 43300 assessed as increase in absorbance incubated for 20 to 22 hrs; format: functional; conditions: time 20-22 hrs
[8] = test system: Staphylococcus epidermidis; assay: Antimicrobial activity against Staphylococcus epidermidis 12228 assessed as increase in absorbance incubated for 20 to 22 hrs; format: functional; conditions: time 20-22 hrs
Staphylococcus aureus [9] = assay: Antimicrobial activity against Staphylococcus aureus 25923 assessed as increase in absorbance incubated for 20 to 22 hrs; format: functional; conditions: time 20-22 hrs
Escherichia coli [10] = assay: Antimicrobial activity against Escherichia coli K99 assessed as increase in absorbance incubated for 20 to 22 hrs; format: functional; conditions: time 20-22 hrs
Salmonella typhimurium [11] = assay: Antimicrobial activity against Salmonella typhimurium 14028 assessed as increase in absorbance incubated for 20 to 22 hrs; format: functional, Salmonella enterica subsp. enterica serovar Typhimurium; conditions: Salmonella enterica, time 20-22 hrs
[12] = Cytotoxicity against porcine IPEC-J2 cells assessed as cell death measured after 18 to 24 hrs by MTT assay; format: functional; conditions: Sus scrofa, time 18-24 hrs
HEK-293T = assay: Cytotoxicity against human HEK293T cells assessed as cell death measured after 18 to 24 hrs by MTT assay; format: functional; conditions: time 18-24 hrs
Acinetobacter baumannii [13] = assay: Antimicrobial activity against Acinetobacter baumannii AB1901 assessed as increase in absorbance incubated for 20 to 22 hrs; format: functional; conditions: time 20-22 hrs
Pseudomonas aeruginosa [14] = assay: Antimicrobial activity against Pseudomonas aeruginosa 25349 assessed as increase in absorbance incubated for 20 to 22 hrs; format: functional; conditions: time 20-22 hrs
Staphylococcus aureus [15] = assay: Antimicrobial activity against Staphylococcus aureus 11011 assessed as increase in absorbance incubated for 20 to 22 hrs; format: functional; conditions: time 20-22 hrs
Acinetobacter baumannii [16] = assay: Antimicrobial activity against Acinetobacter baumannii AB1902 assessed as increase in absorbance incubated for 20 to 22 hrs; format: functional; conditions: time 20-22 hrs

SMILES | MIC (Escherichia coli [1]) [µM] | MIC (Pseudomonas aeruginosa [2]) [µM] | MIC (Salmonella typhimurium [3]) [µM] | MIC (Enterococcus faecalis) [µM] | MIC (Escherichia coli [4]) [µM] | HC10 [5] [µM] | IC10 (RAW264.7) [µM] | MIC (Staphylococcus aureus [6]) [µM] | MIC (Staphylococcus aureus [7]) [µM] | MIC [8] [µM] | MIC (Staphylococcus aureus [9]) [µM] | MIC (Escherichia coli [10]) [µM] | MIC (Salmonella typhimurium [11]) [µM] | IC10 [12] [µM] | IC10 (HEK-293T) [µM] | MIC (Acinetobacter baumannii [13]) [µM] | MIC (Pseudomonas aeruginosa [14]) [µM] | MIC (Staphylococcus aureus [15]) [µM] | MIC (Acinetobacter baumannii [16]) [µM]
CCCCCCCCCCCC(=O)NCCCC[C@H](NC(=O)[C@@H](N)CS)C(=O)NCC(=O)NCC(=O)NCC(=O)N[C@H](CCCNC(=N)N)C(=O)N[C@@H](CCCNC(=N)N)C(=O)N[C@@H](CCCNC(=N)N)C(=O)N1CCC[C@H]1C(=O)O | 32 (≈ 37.4 µg/mL) | 32 (≈ 37.4 µg/mL) | 64 (≈ 74.8 µg/mL) | 64 (≈ 74.8 µg/mL) | 32 (≈ 37.4 µg/mL) | 128 | 128 | 64 (≈ 74.8 µg/mL) | 64 (≈ 74.8 µg/mL) | 64 (≈ 74.8 µg/mL) | 128 (≈ 150 µg/mL) | 64 (≈ 74.8 µg/mL) | 128 (≈ 150 µg/mL) | 256 | 128 |  |  |  | 
CCCCCCCC(=O)NCCCC[C@H](N)C(=O)NCC(=O)NCC(=O)NCC(=O)N[C@H](CCCNC(=N)N)C(=O)N[C@@H](CCCNC(=N)N)C(=O)N[C@@H](CCCNC(=N)N)C(=O)N1CCC[C@H]1C(=O)N[C@@H](CSSC[C@H](NC(=O)[C@@H]1CCCN1C(=O)[C@H](CCCNC(=N)N)NC(=O)[C@H](CCCNC(=N)N)NC(=O)[C@@H](CCCNC(=N)N)NC(=O)CNC(=O)CNC(=O)CNC(=O)[C@@H](N)CCCCNC(=O)CCCCCCC)C(=O)O)C(=O)O | 4 (≈ 8.89 µg/mL) | 4 (≈ 8.89 µg/mL) | 4 (≈ 8.89 µg/mL) | 64 (≈ 142 µg/mL) | 2 (≈ 4.45 µg/mL) | 256 | 256 | 32 (≈ 71.1 µg/mL) | 32 (≈ 71.1 µg/mL) | 64 (≈ 142 µg/mL) | 32 (≈ 71.1 µg/mL) | 4 (≈ 8.89 µg/mL) | 4 (≈ 8.89 µg/mL) | 256 | 256 |  |  |  | 
CCCCCCCC(=O)NCCCC[C@H](N)C(=O)NCC(=O)NCC(=O)NCC(=O)N[C@H](CCCNC(=N)N)C(=O)N[C@@H](CCCNC(=N)N)C(=O)N[C@@H](CCCNC(=N)N)C(=O)N1CCC[C@H]1C(=O)N[C@@H](CS)C(=O)O | 32 (≈ 35.6 µg/mL) | 8 (≈ 8.9 µg/mL) | 32 (≈ 35.6 µg/mL) | 128 (≈ 142 µg/mL) | 32 (≈ 35.6 µg/mL) | 256 | 256 | 128 (≈ 142 µg/mL) | 128 (≈ 142 µg/mL) | 128 (≈ 142 µg/mL) | 128 (≈ 142 µg/mL) | 32 (≈ 35.6 µg/mL) | 64 (≈ 71.2 µg/mL) | 256 | 256 |  |  |  | 
CC[C@H]1OC(=O)[C@H](C)[C@@H](O[C@H]2C[C@@](C)(OC)[C@@H](O)[C@H](C)O2)[C@H](C)[C@@H](O[C@@H]2O[C@H](C)C[C@H](N(C)C)[C@H]2O)[C@](C)(O)C[C@@H](C)C(=O)[C@H](C)[C@@H](O)[C@]1(C)O [ERYTHROMYCIN] |  |  |  |  |  |  |  |  |  |  |  |  |  |  |  | 64 (≈ 47 µg/mL) | 64 (≈ 47 µg/mL) | > 64 | > 64
CCCCCCCCCCCC(=O)NCCCC[C@H](NC(=O)[C@@H](N)CSSC[C@H](N)C(=O)N[C@@H](CCCCNC(=O)CCCCCCCCCCC)C(=O)NCC(=O)NCC(=O)NCC(=O)N[C@H](CCCNC(=N)N)C(=O)N[C@@H](CCCNC(=N)N)C(=O)N[C@@H](CCCNC(=N)N)C(=O)N1CCC[C@H]1C(=O)O)C(=O)NCC(=O)NCC(=O)NCC(=O)N[C@H](CCCNC(=N)N)C(=O)N[C@@H](CCCNC(=N)N)C(=O)N[C@@H](CCCNC(=N)N)C(=O)N1CCC[C@H]1C(=O)O | 16 (≈ 37.4 µg/mL) | 8 (≈ 18.7 µg/mL) | 32 (≈ 74.7 µg/mL) | 16 (≈ 37.4 µg/mL) | 4 (≈ 9.34 µg/mL) | 128 | 128 | 16 (≈ 37.4 µg/mL) | 18 (≈ 42 µg/mL) | 16 (≈ 37.4 µg/mL) | 32 (≈ 74.7 µg/mL) | 32 (≈ 74.7 µg/mL) | 16 (≈ 37.4 µg/mL) | 128 | 128 |  |  |  | 
CCCCCCCCCCCC(=O)NCCCC[C@H](N)C(=O)NCC(=O)NCC(=O)NCC(=O)N[C@H](CCCNC(=N)N)C(=O)N[C@@H](CCCNC(=N)N)C(=O)N[C@@H](CCCNC(=N)N)C(=O)N1CCC[C@H]1C(=O)N[C@@H](CSSC[C@H](NC(=O)[C@@H]1CCCN1C(=O)[C@H](CCCNC(=N)N)NC(=O)[C@H](CCCNC(=N)N)NC(=O)[C@@H](CCCNC(=N)N)NC(=O)CNC(=O)CNC(=O)CNC(=O)[C@@H](N)CCCCNC(=O)CCCCCCCCCCC)C(=O)O)C(=O)O | 16 (≈ 37.4 µg/mL) | 8 (≈ 18.7 µg/mL) | 32 (≈ 74.7 µg/mL) | 32 (≈ 74.7 µg/mL) | 8 (≈ 18.7 µg/mL) | 64 | 64 | 32 (≈ 74.7 µg/mL) | 32 (≈ 74.7 µg/mL) | 32 (≈ 74.7 µg/mL) | 32 (≈ 74.7 µg/mL) | 32 (≈ 74.7 µg/mL) | 32 (≈ 74.7 µg/mL) | 32 | 128 |  |  |  | 
CC(C)(O/N=C(\C(=O)N[C@@H]1C(=O)N2C(C(=O)[O-])=C(C[n+]3ccccc3)CS[C@H]12)c1csc(N)n1)C(=O)O [CEFTAZIDIME] |  |  |  |  |  |  |  |  |  |  |  |  |  |  |  | 0.5 (≈ 0.273 µg/mL) | 0.5 (≈ 0.273 µg/mL) | > 64 | > 64
